Structures are written as SMILES.

For the assay, the target named is T1, human NaV1.8 (Homo sapiens, UniProt Q9Y5Y9).
T1 construct: expressed in transfected cells
T1 sequence (Q9Y5Y9 whole entry): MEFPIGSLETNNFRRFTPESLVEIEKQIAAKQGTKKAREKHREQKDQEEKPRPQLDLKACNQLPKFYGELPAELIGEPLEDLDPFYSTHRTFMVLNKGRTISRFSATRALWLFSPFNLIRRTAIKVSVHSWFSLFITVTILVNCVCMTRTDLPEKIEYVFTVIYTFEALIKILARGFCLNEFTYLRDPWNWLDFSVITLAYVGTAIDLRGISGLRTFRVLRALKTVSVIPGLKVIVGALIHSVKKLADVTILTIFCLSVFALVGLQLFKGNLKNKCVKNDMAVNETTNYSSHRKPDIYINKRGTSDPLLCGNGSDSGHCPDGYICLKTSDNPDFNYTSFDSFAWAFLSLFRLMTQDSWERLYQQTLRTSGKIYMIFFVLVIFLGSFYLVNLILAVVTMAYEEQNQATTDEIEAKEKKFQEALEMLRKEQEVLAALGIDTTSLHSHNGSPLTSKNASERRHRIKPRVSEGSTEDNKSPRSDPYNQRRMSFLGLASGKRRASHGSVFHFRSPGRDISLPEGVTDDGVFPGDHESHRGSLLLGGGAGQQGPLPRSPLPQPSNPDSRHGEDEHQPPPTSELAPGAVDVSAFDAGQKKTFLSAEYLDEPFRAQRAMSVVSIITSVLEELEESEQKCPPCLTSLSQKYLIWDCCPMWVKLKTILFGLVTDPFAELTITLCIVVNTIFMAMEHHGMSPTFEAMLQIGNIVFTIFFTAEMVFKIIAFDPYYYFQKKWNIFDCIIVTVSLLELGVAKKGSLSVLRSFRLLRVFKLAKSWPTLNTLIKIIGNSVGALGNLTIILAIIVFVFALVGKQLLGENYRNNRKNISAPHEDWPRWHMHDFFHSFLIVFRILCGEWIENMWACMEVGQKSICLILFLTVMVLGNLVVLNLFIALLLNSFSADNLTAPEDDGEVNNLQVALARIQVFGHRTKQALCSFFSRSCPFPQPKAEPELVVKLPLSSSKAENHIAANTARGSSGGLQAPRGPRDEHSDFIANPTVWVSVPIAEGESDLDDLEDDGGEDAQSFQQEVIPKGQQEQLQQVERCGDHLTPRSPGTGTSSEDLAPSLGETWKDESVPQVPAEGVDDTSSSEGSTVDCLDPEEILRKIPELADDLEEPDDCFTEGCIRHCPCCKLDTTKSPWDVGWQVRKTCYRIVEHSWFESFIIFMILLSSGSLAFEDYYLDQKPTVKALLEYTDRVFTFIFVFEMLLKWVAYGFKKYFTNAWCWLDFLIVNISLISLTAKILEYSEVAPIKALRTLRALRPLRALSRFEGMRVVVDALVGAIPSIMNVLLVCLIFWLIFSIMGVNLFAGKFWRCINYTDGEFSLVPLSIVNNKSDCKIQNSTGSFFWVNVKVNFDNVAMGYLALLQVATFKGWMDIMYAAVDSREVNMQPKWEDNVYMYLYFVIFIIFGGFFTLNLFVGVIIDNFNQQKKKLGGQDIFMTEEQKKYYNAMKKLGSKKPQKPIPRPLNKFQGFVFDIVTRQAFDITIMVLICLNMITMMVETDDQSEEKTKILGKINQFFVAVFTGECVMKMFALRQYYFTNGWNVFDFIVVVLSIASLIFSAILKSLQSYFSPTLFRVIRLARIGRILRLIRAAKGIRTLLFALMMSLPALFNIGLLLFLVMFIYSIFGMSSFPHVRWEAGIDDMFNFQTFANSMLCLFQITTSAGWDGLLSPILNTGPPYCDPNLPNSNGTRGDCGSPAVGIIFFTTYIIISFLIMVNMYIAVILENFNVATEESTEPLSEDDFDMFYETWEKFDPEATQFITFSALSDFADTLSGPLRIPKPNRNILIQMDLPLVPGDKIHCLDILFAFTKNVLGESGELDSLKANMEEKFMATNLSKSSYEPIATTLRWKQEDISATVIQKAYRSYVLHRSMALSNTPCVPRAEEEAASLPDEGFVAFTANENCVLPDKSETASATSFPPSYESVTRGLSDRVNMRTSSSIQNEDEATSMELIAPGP
The assay can be described thus: Nav1.8 Qube® Assay (automated 384-well patch-clamp, inhibition of sodium current). The conditions noted are these: human NaV1.8 channels stably expressed in HEK 293 cells, room temperature. Type of assay: cell-based. The method in brief: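 Whole-cell voltage clamp at room temperature in HEK293 cells stably expressing NaV1.8; from −90 mV hold, 10 s 1 Hz train of 20 ms pulses to 10 mV with 980 ms repolarization to −67 mV. Peak currents of 1st and 10th pulses give resting and inactivated-state IC50s, Hill fit.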
In general terms: Patch clamp records ionic current or voltage across a cell membrane.
Take `C[C@@H]1C(=O)NCCN1C(=O)NC(c1ccc(F)c(Cl)c1F)C1CCC(F)(F)C1` (single isomer, unassigned) [Example 42D, (2R)-N-((S or R)-(3-chloro-2,4-difluoro-phenyl)((S or R)-3,3-difluorocyclopentyl)-methyl)-2-methyl-3-oxopiperazine-1-carboxamide]: the IC50 (commonly the concentration needed to halve the response being measured) came out at 20.1 nM.
To `C[C@@H]1C(=O)NCCN1C(=O)NC(c1ccc(F)c(Cl)c1)C1CC(C(F)(F)F)C1` (single isomer, unassigned) [Example 43A, (2R)-N-((R or S)-(3-chloro-4-fluorophenyl)-(trans-3-(trifluoro-methyl)-cyclobutyl)-methyl)-2-methyl-3-oxopiperazine-1-carboxamide] belongs 39.6 nM.
The result for `C[C@@H]1C(=O)NCCN1C(=O)NC(c1ccc(F)c(Cl)c1)C1CC(C(F)(F)F)C1` (single isomer, unassigned) [Example 43B, (2R)-N-((R or S)-(3-chloro-4-fluorophenyl)-(cis-3-(trifluoromethyl)-cyclobutyl)methyl)-2-methyl-3-oxopiperazine-1-carboxamide] reads 26.4 nM; that for `C[C@@H]1C(=O)NCCN1C(=O)NC(c1ccc(F)c(Cl)c1)C1CC(C(F)(F)F)C1` (single isomer, unassigned) [Example 43C, (2R)-N-((S or R)-(3-chloro-4-fluorophenyl)-(trans-3-(trifluoro-methyl)-cyclobutyl)-methyl)-2-methyl-3-oxopiperazine-1-carboxamide], 3.2 nM.
For `C[C@@H]1C(=O)NCCN1C(=O)NC(c1ccc(F)c(Cl)c1)C1CC(C(F)(F)F)C1` (single isomer, unassigned) [Example 43D, (2R)-N-((S or R)-(3-chloro-4-fluorophenyl)-(cis-3-(trifluoromethyl)-cyclobutyl)methyl)-2-methyl-3-oxopiperazine-1-carboxamide], the IC50 came out at 21.9 nM.
To `C[C@@H]1C(=O)NCCN1C(=O)NC(c1ccc(F)c(Cl)c1)C1CC(OCC(F)(F)F)C1` (single isomer, unassigned) [Example 44A, (2R)—N—((R or S)-(3-chloro-4-fluorophenyl)(cis-3-(2,2,2-trifluoroethoxy)cyclobutyl)methyl)-2-methyl-3-oxopiperazine-1-carboxamide] belongs 90.5 nM.
In turn, `C[C@@H]1C(=O)NCCN1C(=O)NC(c1ccc(F)c(Cl)c1)C1CC(OCC(F)(F)F)C1` (single isomer, unassigned) [Example 44B, (2R)—N—((S or R)-(3-chloro-4-fluorophenyl)(cis-3-(2,2,2-trifluoroethoxy)cyclobutyl)methyl)-2-methyl-3-oxopiperazine-1-carboxamide] showed an IC50 of 335 nM.
To `C[C@@H]1C(=O)NCCN1C(=O)NC(c1ccc(F)c(Cl)c1)C1CC(OCC(F)(F)F)C1` (single isomer, unassigned) [Example 44C, (2R)—N—((R or S)-(3-chloro-4-fluorophenyl)(trans-3-(2,2,2-trifluoroethoxy)cyclobutyl)methyl)-2-methyl-3-oxopiperazine-1-carboxamide] belongs 172 nM; to `C[C@@H]1C(=O)NCCN1C(=O)NC(c1ccc(F)c(Cl)c1)C1CC(OCC(F)(F)F)C1` (single isomer, unassigned) [Example 44D, (2R)—N—((S or R)-(3-chloro-4-fluorophenyl)(trans-3-(2,2,2-trifluoroethoxy)cyclobutyl)methyl)-2-methyl-3-oxopiperazine-1-carboxamide], 22.7 nM.
`O=C1CN(C(=O)NC(c2ccc(Cl)c(C(F)(F)F)n2)C2CCC(C(F)(F)F)CC2)CCN1` (single isomer, unassigned) [Example 45A]: the IC50 was 283 nM.
The result for `O=C1CN(C(=O)NC(c2ccc(Cl)c(C(F)(F)F)n2)C2CCC(C(F)(F)F)CC2)CCN1` (single isomer, unassigned) [Example 45B] reads 5.27 nM.
